According to paper PMC8270344, “Enantioenriched Positive Allosteric Modulators Display Distinct Pharmacology at the Dopamine D1 Receptor” (Molecules, 2021):

Target: T1, dopamine D1 receptor (hD1R) (Homo sapiens, UniProt P21728)
T1 construct: gene DRD1; hD1R stably expressed in FlpIn CHO cells
Assay: cAMP BRET (CAMYEL) assay with dopamine curves, operational model of allostery (functional KB)
Type: cell-based
Conditions: read-out: pKB (KB, μM) ^1 (converted)

T1 sequence (P21728 whole entry): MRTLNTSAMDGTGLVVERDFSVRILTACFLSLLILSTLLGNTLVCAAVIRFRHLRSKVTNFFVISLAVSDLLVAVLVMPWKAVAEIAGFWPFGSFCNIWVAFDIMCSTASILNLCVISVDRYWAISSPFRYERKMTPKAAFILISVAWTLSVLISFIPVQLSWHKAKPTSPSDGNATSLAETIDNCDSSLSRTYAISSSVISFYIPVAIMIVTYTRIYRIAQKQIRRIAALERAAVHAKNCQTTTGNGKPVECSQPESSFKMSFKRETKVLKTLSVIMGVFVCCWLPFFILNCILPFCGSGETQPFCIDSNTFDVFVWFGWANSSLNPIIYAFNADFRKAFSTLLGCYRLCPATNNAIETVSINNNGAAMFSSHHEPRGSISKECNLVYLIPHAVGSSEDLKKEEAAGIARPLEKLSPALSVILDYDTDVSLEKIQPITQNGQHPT

| Structure (SMILES) | Kb [µM] |
| --- | --- |
| Cc1ccc(Cl)c(NC(=O)C2(C)CC3c4ccccc4C2c2ccccc23)c1Cl (racemic) [rac-2, rel-(9R,10R,12S)-N-(2,6-Dichloro-3-methylphenyl)-12-methyl-9,10-dihydro-9,10-ethanoanthracene-12-carboxamide] | 1.6 |
| Cc1ccc(Cl)c(NC(=O)[C@]2(C)C[C@H]3c4ccccc4[C@@H]2c2ccccc23)c1Cl [(R)-2, (9R,10S,12S)-N-(2,6-Dichloro-3-methylphenyl)-12-methyl-9,10-dihydro-9,10-ethanoanthracene-12-carboxamide] | 7.6 |
| Cc1ccc(Cl)c(NC(=O)[C@@]2(C)C[C@H]3c4ccccc4[C@@H]2c2ccccc23)c1Cl [(S)-2, (9S,10R,12R)-N-(2,6-Dichloro-3-methylphenyl)-12-methyl-9,10-dihydro-9,10-ethanoanthracene-12-carboxamide] | 1 |
